Type in all cases: cell-based, Human
The subject of test [1] is BTK-C481S-mutant OCI-Ly10 cells. Briefly: Cell proliferation suppression test of single agents, BTK-C481S-mutant OCI-Ly10. The note with it: single agent, read-out: Inhibitory activity on cell proliferation OCI-Ly10 BTK-C481S IC50. Here is the method: (§1) The OCI-Ly10 or U2932 cells (20000 cells/well) were seeded into 96-well plates (cell plates), to which the test compound diluted with the medium was added at final concentrations of 0.009 nM to 30000 nM (a final DMSO concentration of 0.3%), and after 96 hours of culture, an Alamar Blue reagent (Thermo Fisher Scientific Inc.) was added. After 3 hours, the fluorescence of excitation wavelength 560 nm/fluorescence wavelength 590 nm was measured and IC50 values of inhibitory activity were determined by setting a compound-free and cell-free well as 100% and a compound-free and cell-containing well as 0%.
BTK-C481S-mutant OCI-Ly10 cells were produced by point mutation knock-in using the CRISPR-Cas9 system. Cas9 protein (Thermo Fisher Scientific Inc.), guide RNA prepared with GeneArt™ Precision gRNA Synthesis Kit (Thermo Fisher Scientific Inc.), and a single-stranded synthetic oligonucleotide to replace 481st cysteine residue of BTK with a serine residue were introduced into OCI-Ly10 cells by an electroporation method. The resulting modified OCI-Ly10 cells were cultured in the presence of ibrutinib, and the grown cells were used as BTK-C481S-mutant OCI-Ly10 cells. Transduction of the mutation was confirmed by genomic DNA and mRNA sequence analysis.
In the same manner as in Test Example 1, IC50 values for each inhibitor single agent were determined.

The subject of test [2] is U2932 cells. Briefly: Cell proliferation suppression test of single agents, U2932 (Alamar Blue, 96 h). The note with it: read-out: Inhibitory Activity on cell proliferation IC50 U2932. Here is the method:
Human lymphoma cell line U2932 cells (obtained from DSMZ) were cultured in a 5% CO2 incubator using RPMI medium (Roswell Park Memorial Institute medium, Thermo Fisher Scientific Inc.) containing 10% fetal bovine serum (GE Healthcare) and 1% penicillin streptomycin (NACALAI TESQUE, INC.).
as §1
A general note: Alamar Blue is a resazurin reagent that responds to reducing activity.

Test [3] deals with OCI-Ly10 cells. Briefly: Cell proliferation suppression test of single agents, OCI-Ly10 (Alamar Blue, 96 h). To be noted: read-out: Inhibitory Activity on cell proliferation IC50 OCI-Ly10. Here is the method: Human lymphoma cell line OCI-Ly10 cells (obtained from University Health Network) were cultured in a 5% CO2 incubator using IMDM medium (Iscove's Modified Dulbecco's Medium, Thermo Fisher Scientific Inc.) containing 20% fetal bovine serum (GE Healthcare) and 1% penicillin streptomycin (NACALAI TESQUE, INC.).
as §1

[4] abbreviates: Homo sapiens, U2932, single agent.
The mark [5] stands for this setting: Homo sapiens, OCI-Ly10, single agent.

Structures can show the parent of a compound that is named as a salt. Where two headings read alike, the source gives them in different places.

As to `CC1(C)CCC(c2ccc(Cl)cc2)=C(CN2CCN(c3ccc(C(=O)NS(=O)(=O)c4ccc(N[C@H](CCN5CCOCC5)CSc5ccccc5)c(S(=O)(=O)C(F)(F)F)c4)cc3)CC2)C1` [navitoclax], the IC50 was 96 nM in test [1] (Homo sapiens, OCI-Ly10); 390 nM in test [2] (setting [4]); 68 nM in test [3] (setting [5]).

As to `CC1(C)CCC(CN2CCN(c3ccc(C(=O)NS(=O)(=O)c4ccc(NCC5CCOCC5)c([N+](=O)[O-])c4)c(Oc4cnc5[nH]ccc5c4)c3)CC2)=C(c2ccc(Cl)cc2)C1` [venetoclax], the IC50 is 20 nM in test [1] (Homo sapiens, OCI-Ly10); 720 nM in test [2] (setting [4]); 10 nM in test [3] (setting [5]).

On to `O=C(c1cc(-c2cc3c(cc2C(=O)N2Cc4ccccc4C[C@H]2CN2CCOCC2)OCO3)n2c1CCCC2)N(c1ccccc1)c1ccc(O)cc1` [Compound S-55746], for which the IC50 amounted to 120 nM in test [1], 1350 nM in test [2] (single agent) and 69 nM in test [3] (single agent).

Take `COC1=CC(c2cc3ccccc3[nH]2)=N/C1=C\c1[nH]c(C)cc1C` [obatoclax mesylate]: the IC50 in test [1] (Homo sapiens, OCI-Ly10) is 150 nM; in test [2] (setting [4]), 190 nM; in test [3] (setting [5]), 150 nM.

The values are drawn from patent US20230100235A1, “ANTICANCER AGENT COMPOSITION” (CARNA BIOSCIENCES, INC., priority 2020, published 2023).
